Measured values from patent US11319299B2, “Substituted carboxamides as inhibitors of WDR5 protein-protein binding” (PROPELLON THERAPEUTICS INC., priority 2016, dated 2022).

target: WDR5 (Homo sapiens (Human), UniProt P61964); assay: Surface Plasmon Resonance (SPR) assay, KD and residence time; assay type: binding; settings: surface plasmon resonance (SPR); read-out: WDR5 binding affinity (KD)

Point of comparison: `C[C@@H]1CN(c2ncc(-c3cc(NC(=O)c4ccc(F)cc4C(F)(F)F)c(N4C[C@@H](C)N(C)[C@@H](C)C4)cc3F)cn2)CCO1` [Example 545, 4-fluoro-N-[4-fluoro-5-[2-[(2R)-2-methylmorpholin-4-yl]pyrimidin-5-yl]-2-[(3R,5S)-3,4,5-trimethylpiperazin-1-yl]phenyl]-2-(trifluoromethyl)benzamide], Kd 3.4 nM. Against it:
- C[C@@H]1CN(c2cc(F)c(-c3csc(C(=O)N4CCOCC4)n3)cc2NC(=O)c2c[nH]c(=O)cc2C(F)(F)F)C[C@H](C)N1C [Example 535, N-[4-fluoro-5-[2-(morpholine-4-carbonyl)-1,3-thiazol-4-yl]-2-[(3R,5S)-3,4,5-trimethylpiperazin-1-yl]phenyl]-6-oxo-4-(trifluoromethyl)-1H-pyridine-3-carboxamide] — within 1.5-fold, 2.8 nM
- C[C@@H]1CN(c2cc(F)c(-c3csc(C(=O)N4CCN(C)CC4)n3)cc2NC(=O)c2c[nH]c(=O)cc2C(F)(F)F)C[C@H](C)N1C [Example 536, N-[4-fluoro-5-[2-(4-methylpiperazine-1-carbonyl)-1,3-thiazol-4-yl]-2-[(3R,5S)-3,4,5-trimethylpiperazin-1-yl]phenyl]-6-oxo-4-(trifluoromethyl)-1H-pyridine-3-carboxamide] — 3.3-fold lower, 1.03 nM
- C[C@@H]1CN(c2cc(F)c(-c3ccnc(NC4CCCCC4)n3)cc2NC(=O)c2c[nH]c(=O)cc2C(F)(F)F)C[C@H](C)N1C [Example 537, N-[5-[2-(cyclohexylamino)pyrimidin-4-yl]-4-fluoro-2-[(3R,5S)-3,4,5-trimethylpiperazin-1-yl]phenyl]-6-oxo-4-(trifluoromethyl)-1H-pyridine-3-carboxamide] — 3.6-fold lower, 0.944 nM
- CNc1nccc(-c2cc(NC(=O)c3c[nH]c(=O)cc3C(F)(F)F)c(N3C[C@@H](C)N(C)[C@@H](C)C3)cc2F)n1 [Example 538, N-[4-fluoro-5-[2-(methylamino)pyrimidin-4-yl]-2-[(3R,5S)-3,4,5-trimethylpiperazin-1-yl]phenyl]-6-oxo-4-(trifluoromethyl)-1H-pyridine-3-carboxamide] — within 1.5-fold, 3.02 nM
- C[C@@H]1CN(c2cc(F)c(-c3ccnc(C#N)n3)cc2NC(=O)c2c[nH]c(=O)cc2C(F)(F)F)C[C@H](C)N1C [Example 539, N-[5-(2-cyanopyrimidin-4-yl)-4-fluoro-2-[(3R,5S)-3,4,5-trimethylpiperazin-1-yl]phenyl]-6-oxo-4-(trifluoromethyl)-1H-pyridine-3-carboxamide] — within 1.5-fold, 2.56 nM
- CNC1CCN(c2cc(F)c(-c3cnc(N4CCOCC4)nc3)cc2NC(=O)c2c[nH]c(=O)cc2C(F)(F)F)CC1 [Example 541, N-[4-fluoro-2-[4-(methylamino)piperidin-1-yl]-5-(2-morpholin-4-ylpyrimidin-5-yl)phenyl]-6-oxo-4-(trifluoromethyl)-1H-pyridine-3-carboxamide] — 2.2-fold higher, 7.44 nM
- C[C@@H]1CN(c2ccc(-c3cc(NC(=O)c4cn(C)c(=O)cc4C(F)F)c(N4C[C@@H](C)N(C)[C@@H](C)C4)cc3F)cn2)CCO1 [Example 542, 4-(difluoromethyl)-N-[4-fluoro-5-[6-[(2R)-2-methylmorpholin-4-yl]pyridin-3-yl]-2-[(3R,5S)-3,4,5-trimethylpiperazin-1-yl]phenyl]-1-methyl-6-oxopyridine-3-carboxamide] — 1.6-fold higher, 5.53 nM
- C[C@@H]1CN(c2ncc(-c3cc(NC(=O)c4cn(C)c(=O)cc4C(F)(F)F)c(N4CCN(C)[C@@H](C)C4)cc3F)cn2)CCO1 [Example 544, N-[4-fluoro-2-[(3S)-3,4-dimethylpiperazin-1-yl]-5-[2-[(2R)-2-methylmorpholin-4-yl]pyrimidin-5-yl]phenyl]-1-methyl-6-oxo-4-(trifluoromethyl)pyridine-3-carboxamide] — 1.9-fold lower, 1.8 nM
- C[C@@H]1CN(c2cc(F)c(-c3cnc(N4CCNCC4)nc3)cc2NC(=O)c2ccc(F)cc2C(F)(F)F)C[C@H](C)N1C [Example 546, 4-fluoro-N-[4-fluoro-5-(2-piperazin-1-ylpyrimidin-5-yl)-2-[(3R,5S)-3,4,5-trimethylpiperazin-1-yl]phenyl]-2-(trifluoromethyl)benzamide] — 1.6-fold lower, 2.1 nM
